# Data as given in the NIST ThermoML archive (doi:10.1021/je901079k).
# Numbers after ± are expanded uncertainties.
# Experiment: xn = mol fraction of the nth substance listed
# Details: Maximal bubble pressure
compound,measurement,setting,value
F.[F-].[Na+] [sodium hydrogen fluoride] + [F][Al]([F])[F],surface tension liquid-gas,"1130.2 K, x1 = 0.6",92.04 ± 2.8 mN/m
same,surface tension liquid-gas,"1159.2 K, x1 = 0.6",89.61 ± 2.7 mN/m
same,surface tension liquid-gas,"1184.2 K, x1 = 0.6",87.51 ± 2.7 mN/m
same,surface tension liquid-gas,"1215.2 K, x1 = 0.6",84.94 ± 2.6 mN/m
same,surface tension liquid-gas,"1239.7 K, x1 = 0.6",82.84 ± 2.5 mN/m
same,surface tension liquid-gas,"1274.2 K, x1 = 0.6667",105.93 ± 3.2 mN/m
same,surface tension liquid-gas,"1297.2 K, x1 = 0.6667",104.59 ± 3.2 mN/m
same,surface tension liquid-gas,"1297.2 K, x1 = 0.7143",121.35 ± 3.7 mN/m
same,surface tension liquid-gas,"1299.2 K, x1 = 0.75",132.71 ± 4 mN/m
same,surface tension liquid-gas,"1318.2 K, x1 = 0.7143",118.25 ± 3.6 mN/m
same,surface tension liquid-gas,"1318.2 K, x1 = 0.75",130.09 ± 4 mN/m
same,surface tension liquid-gas,"1319.2 K, x1 = 0.6667",103.14 ± 3.1 mN/m
same,surface tension liquid-gas,"1329.2 K, x1 = 0.7143",116.62 ± 3.6 mN/m
same,surface tension liquid-gas,"1339.2 K, x1 = 0.75",127.18 ± 3.9 mN/m
same,surface tension liquid-gas,"1340.2 K, x1 = 0.6667",101.57 ± 3.1 mN/m
same,surface tension liquid-gas,"1348.2 K, x1 = 0.7143",113.82 ± 3.5 mN/m
same,surface tension liquid-gas,"1368.2 K, x1 = 0.7143",110.87 ± 3.4 mN/m
same,surface tension liquid-gas,"1370.2 K, x1 = 0.75",122.89 ± 3.7 mN/m
